Assay results reported in patent US8609669B2, “Potassium channel modulators” (AbbVie Inc., priority 2010, dated 2013).

Target: T1, KCNQ 2/3 channels (HEK293 cells stably expressing human KCNQ2 and KCNQ3 subunits) (Homo sapiens, UniProt O43525+O43526)
T1 construct: expressed in transfected cells; host or cells: HEK293
Test: KCNQ2/3 channel activation, thallium flux FLIPR assay (BTC-AM dye)
Type: cell-based
Settings: for Emax: HEK293, maximum response relative to response of retigabine at 10 μM (set at 100%), read-out: Max. %; for EC50: HEK293 cells expressing human KCNQ2 and KCNQ3, FLIPR thallium flux
Outline: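 HEK293 cells stably expressing human KCNQ2/KCNQ3 were loaded with BTC-AM and exposed to compound for 4 min in pH 7.3 gluconate buffer with ouabain. Thallium flux was triggered with 6 mM TlNO3 and 10 mM K2SO4 (stock additions) and fluorescence (ex 488, em 540 nm) recorded for 3 min. EC50 came from responses over baseline; maximal response is relative to 10 μM retigabine (100%).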

Compound | Emax [%] | EC50 [nM]
CC(C)(C)c1c(NC(=O)C[C@@H]2CC[C@H]3C[C@@H]2C3(C)C)nn2cccnc12 [Example 171, N-(3-tert-butylpyrazolo[1,5-a]pyrimidin-2-yl)-2-[(1S,2S,5S)-6,6-dimethylbicyclo[3.1.1]hept-2-yl]acetamide] | 138 | < 100
CC(C)(C)c1c(NC(=O)CC2CCc3ccccc32)nn2cccnc12 (racemic) [Example 172, (±)-N-(3-tert-butylpyrazolo[1,5-a]pyrimidin-2-yl)-2-(2,3-dihydro-1H-inden-1-yl)acetamide] | 20 | > 10000
COc1ccc(CC(=O)Nc2nn3cc(C)cnc3c2-c2cccc(Cl)c2)cc1 [Example 50, N-[3-(3-chlorophenyl)-6-methylpyrazolo[1,5-a]pyrimidin-2-yl]-2-(4-methoxyphenyl)acetamide] | 100 | 1000 to 10000
Cc1ccnc2c(-c3ccc(OC(F)(F)F)cc3)c(NC(=O)CC(C)(C)c3ccccc3)nn12 [Example 159, 3-methyl-N-{7-methyl-3-[4-(trifluoromethoxy)phenyl]pyrazolo[1,5-a]pyrimidin-2-yl}-3-phenylbutanamide] | 136 | 500 to 1000
CC(C)(C)CC(=O)Nc1nn2cccnc2c1C#Cc1ccc(OC(F)(F)F)cc1 [Example 156, 3,3-dimethyl-N-(3-{[4-(trifluoromethoxy)phenyl]ethynyl}pyrazolo[1,5-a]pyrimidin-2-yl)butanamide] | 40 | 1000 to 10000
Cc1cc(C)n2nc(NC(=O)CC3CCCCC3)c(-c3ccc(F)c(C)c3)c2n1 [Example 34, 2-cyclohexyl-N-[3-(4-fluoro-3-methylphenyl)-5,7-dimethylpyrazolo[1,5-a]pyrimidin-2-yl]acetamide] | 166 | < 100
CC(C)(C)CC(=O)Nc1nn2cccnc2c1/C=C/c1ccc(Cl)cc1 [Example 111, N-{3-[(E)-2-(4-chlorophenyl)vinyl]pyrazolo[1,5-a]pyrimidin-2-yl}-3,3-dimethylbutanamide] | 59 | > 10000
CC(C)(C)OC(=O)Nc1nn2cccnc2c1/C=C/C1CCCCC1 [Example 177, tert-butyl {3-[(E)-2-cyclohexylvinyl]pyrazolo[1,5-a]pyrimidin-2-yl}carbamate] | 51 | 1000 to 10000
Cc1cnc2c(-c3ccc(F)cc3)c(NC(=O)Cc3ccc(Cl)cc3)nn2c1 [Example 27, 2-(4-chlorophenyl)-N-[3-(4-fluorophenyl)-6-methylpyrazolo[1,5-a]pyrimidin-2-yl]acetamide] | 125 | 100 to 500
Cc1cnc2c(-c3ccc(C)c(F)c3)c(NC(=O)CCC3CCCC3)nn2c1 [Example 20, 3-cyclopentyl-N-[3-(3-fluoro-4-methylphenyl)-6-methylpyrazolo[1,5-a]pyrimidin-2-yl]propanamide] | 120 | < 100
COc1cccc(CC(=O)Nc2nn3c(C)ccnc3c2-c2ccc(Cl)cc2)c1 [Example 41, N-[3-(4-chlorophenyl)-7-methylpyrazolo[1,5-a]pyrimidin-2-yl]-2-(3-methoxyphenyl)acetamide] | 136 | 1000 to 10000
CC(C)c1c(NC(=O)COC2CCCC2)nn2cccnc12 [Example 133, 2-(cyclopentyloxy)-N-(3-isopropylpyrazolo[1,5-a]pyrimidin-2-yl)acetamide] | 7 | > 10000
O=C(CCC1CCCC1)Nc1nn2cccnc2c1-c1cccc(F)c1 [Example 135, 3-cyclopentyl-N-[3-(3-fluorophenyl)pyrazolo[1,5-a]pyrimidin-2-yl]propanamide] | 143 | 100 to 500
Cc1ccccc1-c1c(NC(=O)CC(C)(C)C)nn2cccnc12 [Example 141, 3,3-dimethyl-N-[3-(2-methylphenyl)pyrazolo[1,5-a]pyrimidin-2-yl]butanamide] | 6 | > 10000
CC(C)c1c(NC(=O)CC(C)(C)C)nn2cccnc12 [Example 113, N-(3-isopropylpyrazolo[1,5-a]pyrimidin-2-yl)-3,3-dimethylbutanamide] | 18 | 100 to 500
Cc1cc(C)n2nc(NC(=O)CC3CCCC3)c(-c3cccc(Cl)c3)c2n1 [Example 53, N-[3-(3-chlorophenyl)-5,7-dimethylpyrazolo[1,5-a]pyrimidin-2-yl]-2-cyclopentylacetamide] | 143 | < 100
Cc1ccnc2c(-c3cccc(C(F)(F)F)c3)c(NC(=O)Cc3ccc(F)cc3)nn12 [Example 67, 2-(4-fluorophenyl)-N-{7-methyl-3-[3-(trifluoromethyl)phenyl]pyrazolo[1,5-a]pyrimidin-2-yl}acetamide] | 117 | 100 to 500
CC(C)c1ccc(CC(=O)Nc2nn3cccnc3c2C(C)(C)C)cc1 [Example 166, N-(3-tert-butylpyrazolo[1,5-a]pyrimidin-2-yl)-2-(4-isopropylphenyl)acetamide] | 154 | 500 to 1000
Cc1cc(C)n2nc(NC(=O)COC3CCCC3)c(-c3ccc(Cl)c(C)c3)c2n1 [Example 134, N-[3-(4-chloro-3-methylphenyl)-5,7-dimethylpyrazolo[1,5-a]pyrimidin-2-yl]-2-(cyclopentyloxy)acetamide] | 11 | > 10000
Cc1cc(C)n2nc(NC(=O)CC3CCCCC3)c(-c3cccc(F)c3)c2n1 [Example 86, 2-cyclohexyl-N-[3-(3-fluorophenyl)-5,7-dimethylpyrazolo[1,5-a]pyrimidin-2-yl]acetamide] | 138 | < 100
Cc1cc(C)n2nc(NC(=O)CCc3ccccc3)c(-c3ccc(Cl)c(C)c3)c2n1 [Example 47, N-[3-(4-chloro-3-methylphenyl)-5,7-dimethylpyrazolo[1,5-a]pyrimidin-2-yl]-3-phenylpropanamide] | 125 | 100 to 500
CC(C)(C)CC(=O)Nc1nn2cccnc2c1C(C)(C)C [Example 106, N-(3-tert-butylpyrazolo[1,5-a]pyrimidin-2-yl)-3,3-dimethylbutanamide] | 67 | 1000 to 10000
Cc1cc(C)n2nc(NC(=O)CCC3CCCCC3)c(-c3ccc(Cl)c(C)c3)c2n1 [Example 48, N-[3-(4-chloro-3-methylphenyl)-5,7-dimethylpyrazolo[1,5-a]pyrimidin-2-yl]-3-cyclohexylpropanamide] | 68 | 1000 to 10000
Cc1cnc2c(-c3ccc(F)c(C)c3)c(NC(=O)CC34CC5CC(CC(C5)C3)C4)nn2c1 [Example 151, 2-(adamantan-1-yl)-N-[3-(4-fluoro-3-methylphenyl)-6-methylpyrazolo[1,5-a]pyrimidin-2-yl]acetamide] | 179 | < 100
Cc1ccnc2c(-c3cccc(Cl)c3)c(NC(=O)CCc3ccccc3)nn12 [Example 49, N-[3-(3-chlorophenyl)-7-methylpyrazolo[1,5-a]pyrimidin-2-yl]-3-phenylpropanamide] | 123 | 1000 to 10000
COc1cc(CC(=O)Nc2nn3cccnc3c2-c2cccc(F)c2)cc(OC)c1 [Example 138, 2-(3,5-dimethoxyphenyl)-N-[3-(3-fluorophenyl)pyrazolo[1,5-a]pyrimidin-2-yl]acetamide] | 11 | > 10000
